{"source": "patent US20100160454A1", "about": "“ANTIMICROBIAL AGENTS, COMPOSITIONS AND PRODUCTS CONTAINING THE SAME, AND METHODS OF USING THE COMPOSITIONS AND PRODUCTS” (Eastman Chemical Company, priority 2008, published 2010)", "assay_in_all_cases": "Microbiological challenge testing in BPW broth, graded subculture counts", "assay_type_in_all_cases": "cell-based", "key": {"[1]": {"system": "Burkholderia cepacia Wild type", "conditions": "B. cepacia", "method": "(§1) The microorganisms in the table below were used in challenge tests. They were either ATCC (American Type Culture Collection) or “wild type” as indicated. Wild type organisms were problematic organisms previously isolated from chemical products.\n(§2) All of the microorganisms were grown in Tryptose Soy Broth (TSB), DIFCO™ available from Becton, Dickinson and Company, containing 1% dextrose. Candida albicans and Aspergillus niger, were incubated at 22° C.+/−2° C. for at least 96 hours. All bacteria were incubated at 35° C.+/−2° C. in a humidified incubator for at least 96 hours.\n(§3) The following procedure was followed to determine the amount of each challenge material (inoculum broth) needed to produce a 10^8 CFU/mL challenge, which is equivalent to a final test-sample microbial concentration of 10^5 to 10^6 CFU/mL (CFU=colony forming units).\n(§4) Using a sterile pipette, 1 mL of the growth from each TSB culture was transferred into tubes of 9 mL buffered water (pH 7.2 phosphate buffer) and mixed thoroughly. This was repeated to make serial 1:10 dilutions. Then, 0.1 mL of each sample and dilution was inoculated onto agar plates to produce the equivalent of a further 1:10 dilution. (C. albicans and A. niger were inoculated onto SABD and bacteria were inoculated onto Plate Count Agar (PCA), DIFCO™ available from Becton, Dickinson and Company.) (The normal volume plated for most samples was 0.1 mL. Some samples that could be very low in micro-organisms (high dilutions) were plated using 0.5 mL of inoculum, in order to produce reproducible counts.) The samples were distributed on the plates using the spread-plate technique. The spread-plate technique is carried out by spreading the sample over the entire plate surface using a sterile spreading rod while rotating the plate with a rotary auto-plater. After the inoculum was absorbed completely by the agar, each plate was inverted and incubated (fungi at 22° C.+/−2° C. and bacteria at 35° C.+/−2° C.).\n(§5) After incubation for at least 48 hours, colonies that had developed on the agar plates were counted (CFU) and recorded with the corresponding dilution. If counting had to be delayed temporarily, plates were refrigerated, preferably no more than 24 hours, until they could be counted. The number of CFU/mL was determined by multiplying the plate count by the dilution factor of the plate counted.\n(§6) Turbidity in Nepholemetric Turbidity Units (NTU) was measured for each serial dilution using the HF-Micro 100 Model Turbidimeter. For each microorganism, the plate counts were compared to the turbidity readings.\n(§7) Control substrates (“broth alone”) were prepared for each microorganism separately in triplicate by adding 13.5 mL of Buffered Peptone Water broth (BPW) containing 1% dextrose to each 20-mL glass tube, then adding 1.5 mL challenge material to produce a final concentration at time zero of 10^5 to 10^6 CFU/mL and a total volume of 15 mL.\n(§8) Test sample substrates were prepared containing each test material listed below at the concentrations shown for challenge testing with each microorganism separately. Sample substrates were prepared in triplicate, except the substrates containing butoxyethanol which were prepared in duplicate. Substrates were prepared by adding BPW containing 1% dextrose to each 20-mL glass tube, then adding the test material in the amount appropriate to achieve the desired weight/volume percent and to achieve a total volume of BPW plus dextrose plus test material of 13.5 mL. Then 1.5 mL challenge material was added to produce a final concentration at time zero of 10^5 to 10^6 CFU/mL and a total test sample substrate volume of 15 mL."}, "[2]": {"system": "Proteus vulgaris Wild type", "method": "as §1, §2, §3, §4, §5, §6, §7, §8"}, "[3]": {"system": "Staphylococcus aureus ATCC 25923", "conditions": "S. aureus", "method": "as §1, §2, §3, §4, §5, §6, §7, §8"}, "[4]": {"system": "Aspergillus niger Wild type", "conditions": "A. niger", "method": "as §1, §2\n(§9) Candida albicans and Aspergillus niger were also grown on Sabouraud Dextrose Agar (SABD) at 22° C. for 7 to 14 days or until full sporulation was achieved.\nas §3, §4, §5, §6\nAspergillus niger cultures were harvested and spores dislodged from the SABD on which they were grown by rubbing the growth gently with a sterile inoculating loop. The spores were then mixed into the broth culture that had been incubated with a sterile magnetic stir bar to reduce pellicle formation. The spore-culture mixture was filtered repeatedly through sterile, nonabsorbent cotton and harvested repeatedly, adjusting vegetative cells and spores to a level of 1.0×10^8. A hemocytometer was used to verify the final challenge concentration.\nas §7"}, "[5]": {"system": "Candida albicans Wild type", "conditions": "C. albicans", "method": "as §1, §2, §9, §3, §4, §5, §6\nOn the day of challenge, the Candida albicans inoculum broth was poured through nonabsorbent sterile gauze and centrifuged. The […] was then diluted with buffered water (pH 7.2 phosphate buffer) until the desired turbidity was reached. Using a hemocytometer, a determination was made whether the challenge contained the desired concentration. Dilutions were made through 1.0×10^8 and three SABD spread plates were inoculated with 0.1 mL of each dilution. The plates were incubated for at least 48 hours and challenge counts were confirmed.\nas §7"}}, "data": [{"smiles": "OCC1CCCCC1CO", "note": "(stereo not drawn) [1,2-CHDM, 1,2-cyclohexanedimethanol]", "values": [{"measurement": "Grade", "setting": "[1]; 0.5% (wt/vol), 3 day", "result": "4 (1000 to 10,000 colonies countable (thus 10,000 CFU/mL to 100,000 CFU/mL))"}, {"measurement": "Grade", "setting": "[1]; 0.5% (wt/vol), 14 day", "result": "4 (1000 to 10,000 colonies countable (thus 10,000 CFU/mL to 100,000 CFU/mL))"}, {"measurement": "Grade", "setting": "[1]; 0.5% (wt/vol), 30 day", "result": "4 (1000 to 10,000 colonies countable (thus 10,000 CFU/mL to 100,000 CFU/mL))"}, {"measurement": "Grade", "setting": "[1]; 1.25% (wt/vol), 3 day", "result": "1 (0 to 51 colonies counted (thus 10 to 510 CFU/mL based on 0.1-mL sample))"}, {"measurement": "Grade", "setting": "[1]; 1.25% (wt/vol), 14 day", "result": 0}, {"measurement": "Grade", "setting": "[1]; 1.25% (wt/vol), 30 day", "result": 0}, {"measurement": "Grade", "setting": "[1]; 2.5% (wt/vol), 3 day", "result": 0}, {"measurement": "Grade", "setting": "[1]; 2.5% (wt/vol), 14 day", "result": 0}, {"measurement": "Grade", "setting": "[1]; 2.5% (wt/vol), 30 day", "result": 0}, {"measurement": "Grade", "setting": "[1]; 5.0% (wt/vol), 3 day", "result": 0}, {"measurement": "Grade", "setting": "[1]; 5.0% (wt/vol), 14 day", "result": 0}, {"measurement": "Grade", "setting": "[1]; 5.0% (wt/vol), 30 day", "result": 0}, {"measurement": "P. vulgaris growth grade, 3 day", "setting": "[2]; 0.5% weight/volume", "result": "4 (1000 to 10,000 colonies countable (thus 10,000 CFU/mL to 100,000 CFU/mL))"}, {"measurement": "P. vulgaris growth grade, 13 day", "setting": "[2]; 0.5% weight/volume", "result": "4 (1000 to 10,000 colonies countable (thus 10,000 CFU/mL to 100,000 CFU/mL))"}, {"measurement": "P. vulgaris growth grade, 30 day", "setting": "[2]; 0.5% weight/volume", "result": "4 (1000 to 10,000 colonies countable (thus 10,000 CFU/mL to 100,000 CFU/mL))"}, {"measurement": "P. vulgaris growth grade, 3 day", "setting": "[2]; 1.25% weight/volume", "result": 2.3}, {"measurement": "P. vulgaris growth grade, 13 day", "setting": "[2]; 1.25% weight/volume", "result": "1 (0 to 51 colonies counted (thus 10 to 510 CFU/mL based on 0.1-mL sample))"}, {"measurement": "P. vulgaris growth grade, 30 day", "setting": "[2]; 1.25% weight/volume", "result": 0}, {"measurement": "P. vulgaris growth grade, 3 day", "setting": "[2]; 2.5% weight/volume", "result": "1 (0 to 51 colonies counted (thus 10 to 510 CFU/mL based on 0.1-mL sample))"}, {"measurement": "P. vulgaris growth grade, 13 day", "setting": "[2]; 2.5% weight/volume", "result": 0}, {"measurement": "P. vulgaris growth grade, 30 day", "setting": "[2]; 2.5% weight/volume", "result": 0}, {"measurement": "P. vulgaris growth grade, 3 day", "setting": "[2]; 5.0% weight/volume", "result": 0}, {"measurement": "P. vulgaris growth grade, 13 day", "setting": "[2]; 5.0% weight/volume", "result": 0}, {"measurement": "P. vulgaris growth grade, 30 day", "setting": "[2]; 5.0% weight/volume", "result": 0}, {"measurement": "Grade", "setting": "[3]; 0.5% (wt/vol), 3 day", "result": "4 (1000 to 10,000 colonies countable (thus 10,000 CFU/mL to 100,000 CFU/mL))"}, {"measurement": "Grade", "setting": "[3]; 0.5% (wt/vol), 14 day", "result": "4 (1000 to 10,000 colonies countable (thus 10,000 CFU/mL to 100,000 CFU/mL))"}, {"measurement": "Grade", "setting": "[3]; 0.5% (wt/vol), 30 day", "result": "4 (1000 to 10,000 colonies countable (thus 10,000 CFU/mL to 100,000 CFU/mL))"}, {"measurement": "Grade", "setting": "[3]; 1.25% (wt/vol), 3 day", "result": 3.3}, {"measurement": "Grade", "setting": "[3]; 1.25% (wt/vol), 14 day", "result": 2.7}, {"measurement": "Grade", "setting": "[3]; 1.25% (wt/vol), 30 day", "result": "4 (1000 to 10,000 colonies countable (thus 10,000 CFU/mL to 100,000 CFU/mL))"}, {"measurement": "Grade", "setting": "[3]; 2.5% (wt/vol), 3 day", "result": 0}, {"measurement": "Grade", "setting": "[3]; 2.5% (wt/vol), 14 day", "result": 0}, {"measurement": "Grade", "setting": "[3]; 2.5% (wt/vol), 30 day", "result": 0}, {"measurement": "Grade", "setting": "[3]; 5.0% (wt/vol), 3 day", "result": 0}, {"measurement": "Grade", "setting": "[3]; 5.0% (wt/vol), 14 day", "result": 0}, {"measurement": "Grade", "setting": "[3]; 5.0% (wt/vol), 30 day", "result": 0}, {"measurement": "Grade", "setting": "[4]; 0.5% (wt/vol), 3 day", "result": 4.7}, {"measurement": "Grade", "setting": "[4]; 0.5% (wt/vol), 13 day", "result": 4}, {"measurement": "Grade", "setting": "[4]; 0.5% (wt/vol), 30 day", "result": 4}, {"measurement": "Grade", "setting": "[4]; 1.25% (wt/vol), 3 day", "result": 3.3}, {"measurement": "Grade", "setting": "[4]; 1.25% (wt/vol), 13 day", "result": 3.3}, {"measurement": "Grade", "setting": "[4]; 1.25% (wt/vol), 30 day", "result": 4}, {"measurement": "Grade", "setting": "[4]; 2.5% (wt/vol), 3 day", "result": "2 (Countable (10 to 100 colonies))"}, {"measurement": "Grade", "setting": "[4]; 2.5% (wt/vol), 13 day", "result": 0}, {"measurement": "Grade", "setting": "[4]; 2.5% (wt/vol), 30 day", "result": 0}, {"measurement": "Grade", "setting": "[4]; 5.0% (wt/vol), 3 day", "result": 0}, {"measurement": "Grade", "setting": "[4]; 5.0% (wt/vol), 13 day", "result": 0}, {"measurement": "Grade", "setting": "[4]; 5.0% (wt/vol), 30 day", "result": 0}, {"measurement": "Grade", "setting": "[5]; 0.5% (wt/vol), 3 day", "result": "4 (1000 to 10,000 colonies countable (thus 10,000 CFU/mL to 100,000 CFU/mL))"}, {"measurement": "Grade", "setting": "[5]; 0.5% (wt/vol), 14 day", "result": "4 (1000 to 10,000 colonies countable (thus 10,000 CFU/mL to 100,000 CFU/mL))"}, {"measurement": "Grade", "setting": "[5]; 0.5% (wt/vol), 30 day", "result": "4 (1000 to 10,000 colonies countable (thus 10,000 CFU/mL to 100,000 CFU/mL))"}, {"measurement": "Grade", "setting": "[5]; 1.25% (wt/vol), 3 day", "result": "4 (1000 to 10,000 colonies countable (thus 10,000 CFU/mL to 100,000 CFU/mL))"}, {"measurement": "Grade", "setting": "[5]; 1.25% (wt/vol), 14 day", "result": "4 (1000 to 10,000 colonies countable (thus 10,000 CFU/mL to 100,000 CFU/mL))"}, {"measurement": "Grade", "setting": "[5]; 1.25% (wt/vol), 30 day", "result": "4 (1000 to 10,000 colonies countable (thus 10,000 CFU/mL to 100,000 CFU/mL))"}, {"measurement": "Grade", "setting": "[5]; 2.5% (wt/vol), 3 day", "result": 0}, {"measurement": "Grade", "setting": "[5]; 2.5% (wt/vol), 14 day", "result": 0}, {"measurement": "Grade", "setting": "[5]; 2.5% (wt/vol), 30 day", "result": 0}, {"measurement": "Grade", "setting": "[5]; 5.0% (wt/vol), 3 day", "result": 0}, {"measurement": "Grade", "setting": "[5]; 5.0% (wt/vol), 14 day", "result": 0}, {"measurement": "Grade", "setting": "[5]; 5.0% (wt/vol), 30 day", "result": 0}]}]}
